# From EP4671365A1, “KIT FOR INDUCING STEM CELLS TO DIFFERENTIATE INTO NK CELLS, USE OF KIT, AND USE OF COMBINATION OF NK CELLS AND TMZ IN TREATMENT FOR TMZ DRUG-RESISTANT GBM” (Xellsmart Biomedical (Suzhou) Co., Ltd, priority 2023, dated 2024)
# Tests used:
# TMZ-resistant GBM (T98G) = test: CellTiter-Glo cell viability assay, sensitivity response to TMZ; assay type: cell-based
# Procedure: (§1) U87 and T98G cells were cultured until an 80%-90% confluence and digested with pancreatin (Beyotime, C0201-100mL) at 37 °C for 5 min. DMEM medium (Gibco, 11965084) of a two-fold volume was added to stop the digestion. The cell suspension was transferred to a centrifuge tube and centrifuged at 300 g for 5 min. The cell pellet was resuspended in DMEM medium, and the cells were counted by AO (acridine orange)/PI (propidium iodide) staining. According to the counting result, the density of the cell suspension was adjusted to 1 × 10^5 cells/mL. The cell suspension was added to the 96-well plate at 100 µL/well as required for grouping, and then the 96-well plate was incubated in an incubator at 37 °C overnight.
# (§2) TMZ powder (Sigma, T2577-25MG) was dissolved in an appropriate volume of DMSO to prepare a TMZ stock solution at a concentration of 100 mM. The TMZ solution with the highest concentration (5000 µM) was prepared as follows: 225 µL of the TMZ stock solution was diluted with 4.5 mL of DMEM medium, and the resultant solution was then diluted to give TMZ working solutions at concentrations of 1000 µM, 500 µM, 200 µM, 100 µM, and 10 µM.
# (§3) After the U87 and T98G cells were cultured overnight, and the adherent growth and the logarithmic growth phase were observed, the TMZ working solutions at the corresponding working concentration were added according to the grouping design at 100 µL/well, and the cells were incubated in the incubator. […]
# (§4) The CellTiter-Glo® luminescent cell viability assay kit (Promega, G7572) was used, and the procedures in the manufacturer's instructions were performed. An appropriate volume of the CellTiter-Glo® solution was mixed with a DMEM medium in a ratio of 1:1 to prepare a working solution. The CellTiter-Glo® working solution was added to the 96-well plate at 50 µL/well. The plate was incubated at room temperature for 10 min in the dark and then detected on a microplate reader (TECAN, Infinite®200 PRO) for the chemiluminescence.
# (§5) The assay and detection schemes were the same as those in Example 5.1, and a concentration of 300 µM in the sensitive interval in Example 5.1 was selected as the TMZ concentration.
# TMZ-sensitive GBM (U87) = test: as above; assay type: cell-based
# Procedure: as §1, §2, §3, §4, §5
# resistant GBM (T98G) [1] = test: In vitro killing of tumor target cells (CellTiter-Glo); assay type: cell-based
# Procedure: Furthermore, in this example, the in vitro efficacy of iPSC-NK cells in combination with TMZ was explored by monitoring the killing of tumor target cells. • A. The procedures for the culture, digestion, and plating of GBM tumor cells T98G are described in Example 5. • B. TMZ preparation: See Example 5 for the procedures of treating cells. In this example, the cells were pre-treated at 1000 µM for 48 h. • C. iPSC-NK cells were prepared as described in Example 8. • D. Co-incubation for killing. According to the preset effector-to-target ratios (1:8, 1:4, and 1:1), an appropriate volume of iNK cells in an expansion culture was taken (note that the iNK cell viability should be kept at 90% or higher) and counted by AO/PI staining. According to the counting result, the cell suspension was adjusted to a density of 1 × 10^5 cells/mL. The tumor cells were seeded at 1 × 10^4 cells/well. After the adherent culture of T98G cells in the 96-well plates (6 h after re-digestion and inoculation), the NK cell suspension was added to the T98G plates according to the grouping design. After 18 h of co-incubation, the viability of the T98G cells was detected using the CellTiter-Glo® luminescent cell viability assay kit. Three replicates were set in each group. • E. Cell viability assay. At preset time points (8, 16, 24, and 48 h), the cells were collected. The CellTiter-Glo® luminescent cell viability assay kit was used according to the manufacturer's instructions. An appropriate volume of the CellTiter-Glo® solution was mixed with a DMEM medium in a ratio of 1:1 to prepare a working solution. The CellTiter-Glo® working solution was added to the 96-well plate at 50 µL/well. The plate was incubated at room temperature for 10 min in the dark and then detected on a microplate reader for the chemiluminescence. • F. Killing rate calculation. Killing rate (%) = (fluorescence intensity in the untreated group - fluorescence intensity in the treatment group)/fluorescence intensity in the untreated group × 100%. * denotes p < 0.05 in a T test, and ** denotes p < 0.01. […]
# T98G = test: Flow cytometry of immune activation ligands after TMZ treatment; assay type: cell-based; conditions: TMZ 1000 µM, 48 h; CD112, CD155, B7-H6, CD54, CD70, CD48, CD1d, PD-L1
# Source text: Immune surveillance is an important mechanism for identifying and removing tumor cells, and the dynamic expression of proteins related to immune activation on the membrane of tumor cells is also the key to their recognition by immune cells or recognition escape. In this example, the changes in expression of immune-related proteins when GBM is resisting the effect of TMZ were further studied, so as to provide a theoretical basis for the immunotherapy. • A. GBM cell culture and treatment: See Example 5 for the procedures of T98G cell culture. The cells were cultured until an 80%-90% confluence and digested with pancreatin at 37 °C for 5 min. DMEM medium of a two-fold volume was added to stop the digestion. The cell suspension was transferred to a centrifuge tube and centrifuged at 300 g for 5 min. The cell pellet was resuspended in DMEM medium, and the cells were counted by AO/PI staining. According to the counting result, the density of the cell suspension was adjusted to 1 × 10^5 cells/mL. After that, an appropriate volume of TMZ stock solution (100 mM) was added to the cell suspension to reach a final TMZ concentration of 1000 µM in the cell suspension. […]
# The cells treated with TMZ for 48 h were digested with a pancreatin digestion solution and centrifuged, and the supernatant was discarded. […] The cells were washed with PBS, centrifuged, resuspended, and detected on a flow cytometer. […]
# resistant GBM (T98G) [2] = test: Cell cycle assay (PI staining, flow cytometry); assay type: cell-based; conditions: TMZ 300 µM, compared to control DMSO
# Procedure: (§6) TMZ acts on DNA after being absorbed into tumor cells in the human body, causing alkylation damage to the DNAs, thereby forming DNA double-strand breaks or cross-linking, arresting the cell cycle, and triggering the proliferation arrest or apoptosis of the tumor cells. To explore the mechanism by which the resistant GBM cell strains resist TMZ, a cell cycle assay was performed to determine the effect of TMZ on the cell cycle of different GBM cell strains. A. Cell culture and treatment: See Example 5 for the procedures of U87 and T98G cell culture and TMZ treatment. The concentration of TMZ used in this example was 300 µM. B. Preparation of cell samples: The Beyotime cell cycle kit (Beyotime, C1052) was used according to the manufacturer's instructions. 1 × 10^6 cells were added to a centrifuge tube for later use and centrifuged at 1000 g for 3-5 min to precipitate the cells. The supernatant was discarded by pipetting, and 1 mL of pre-cooled PBS was added to resuspend the cells. The mixture was transferred to a 1.5 mL centrifuge tube. The cells were pelleted by centrifugation, and the supernatant was discarded by pipetting. C. Cell fixation: The cells were added to 1 mL of pre-cooled 70% ethanol, mixed well by pipetting, and fixed at 4 °C for 30 min. The mixture was centrifuged at about 1000 g for 3-5 min to pellet the cells. The supernatant was discarded by pipetting, and about 1 mL of PBS pre-cooled in an ice bath was added to resuspend the cells. The cells were pelleted again by centrifugation, and the supernatant was discarded by pipetting. D. Preparation of and staining with propidium iodide (PI) staining solution: Referring to Table 2, an appropriate amount of PI staining solution was prepared according to the number of samples to be tested. Table 2. Preparation of PI staining solutions
# (§7) Staining: 0.5 mL of the PI staining solution was added to each tube of cell samples, and the cell pellet was slowly and fully resuspended and incubated in the dark at 37 °C for 30 min. The mixture was preserved at 4 °C or in an ice bath in the dark. The flow cytometry was completed within 24 h after the staining was completed.
# (§8) E. Flow cytometry detection and analysis: The red fluorescence was detected at an excitation wavelength of 488 nm and the light scattering was also detected on a flow cytometer (Agilent, Novocyte3000). The cellular DNA content assay and light scattering analysis were performed using an appropriate analysis software (Agilent, Novoexpress).
# sensitive GBM (U87) = test: Cell cycle assay (PI staining, flow cytometry); assay type: cell-based; conditions: TMZ 300 µM
# Procedure: as §6, §7, §8
# [3] = in vivo, cited from earlier work
# [4] = TMZ 300 µM, 48 h, compared to control DMSO
smiles,measurement,setting,value
"Cn1nnc2c(C(N)=O)ncn2c1=O [TMZ, 3,4-dihydro-3-methyl-4-oxoimidazo[5,1-d]-asymmetric-tetrazol-8-amide]",viability at 200 µM,"TMZ-resistant GBM (T98G); Homo sapiens, T98G, TMZ 200 µM, 72 h, read-out: viable T98G cell count",≥ 80%
same,viability at 300 µM,"TMZ-resistant GBM (T98G); Homo sapiens, T98G, TMZ 300 µM, at 72 h, read-out: viable cell count (T98G)",> 80%
same,viability at 500 µM,"TMZ-resistant GBM (T98G); Homo sapiens, T98G, TMZ 500 µM, 72 h, read-out: viable T98G cell count",70%
same,growth of T98G cells (microscopic results),TMZ-resistant GBM (T98G); [4],not greatly different
same,viability at 200 µM,"TMZ-sensitive GBM (U87); Homo sapiens, U-87 MG, TMZ 200 µM, 72 h, read-out: viable U87 cell count",~50%
same,viability at 300 µM,"TMZ-sensitive GBM (U87); Homo sapiens, U-87 MG, TMZ 300 µM, at 72 h, read-out: viable U87 cell count",< 40%
same,viability at 500 µM,"TMZ-sensitive GBM (U87); Homo sapiens, U-87 MG, TMZ 500 µM, 72 h, read-out: viable U87 cell count",~40%
same,growth of U87 cells (microscopic results),TMZ-sensitive GBM (U87); [4],significantly inhibited
same,killing effect against target cells,"resistant GBM (T98G) [1]; 8 h, 16 h, 24 h and 48 h, effector-to-target ratios 1:8, 1:4, 1:1, TMZ 1000 µM pretreatment 48 h",weak killing effect
same,killing effects / in vitro killing activity,"resistant GBM (T98G) [1]; E:T = 1:1, co-incubation 8 h",substantially no killing effects
same,killing effect,"resistant GBM (T98G) [1]; at 48 h, TMZ 1000 µM",about 10%
same,expression of immune activation ligands,T98G,up-regulated expression to different extents
same,DNA in the G2/M phase,resistant GBM (T98G) [2],did not change significantly
same,DNA content in the G2/M phase,sensitive GBM (U87); 24 h,16.86%
same,DNA content in the G2/M phase,sensitive GBM (U87); 48 h,23.22%
same,DNA content in the G2/M phase,sensitive GBM (U87); 72 h,40.01%
same,oral bioavailability,[3]; po,~100%
same,"concentration detected in the cerebrospinal fluid, of the TMZ plasma concentration",[3],about 20%
